The values that follow come from patent US7250414B2, “Diphenylmethyl compounds useful as muscarinic receptor antagonists” (Theravance, Inc., priority 2004, dated 2007).

For assay [1], the system named is pilocarpine-evoked salivation. The experiment in a line: Inhalation guinea pig salivation assay. The format is in vivo. The protocol:
Inhalation Guinea Pig Salivation Assay
Guinea pigs (Charles River, Wilmington, Mass.) weighing 200-350 g were acclimated to the in-house guinea pig colony for at least 3 days following arrival. Test compound or vehicle were dosed via inhalation (IH) over a 10 minute time period in a pie shaped dosing chamber (R&S Molds, San Carlos, Calif.). Test solutions were dissolved in sterile water and delivered using a nebulizer filled with 5.0 mL of dosing solution. Guinea pigs were restrained in the inhalation chamber for 30 minutes. During this time, guinea pigs were restricted to an area of approximately 110 sq. cm. […] Upon completion of nebulization, guinea pigs were evaluated at 1.5, 6, 12, 24, 48, or 72 hrs after treatment.
Guinea pigs were anesthetized one hour before testing with an intramuscular (IM) injection of a mixture of ketamine 43.75 mg/kg, xylazine 3.5 mg/kg, and acepromazine 1.05 mg/kg at an 0.88 mL/kg volume. […] Saliva was collected for 10 minutes, at which point the gauze pad was weighed and the difference in weight recorded to determine the amount of accumulated saliva (in mg). The mean amount of saliva collected for animals receiving the vehicle and each dose of test compound was calculated. […] Results were calculated using result means (n=3 or greater). Confidence intervals (95%) were calculated for each dose at each time point using two-way ANOVA. […]

Assay [2] has as its target T1, hM3 muscarinic receptor subtype (Homo sapiens, UniProt P20309).
T1 construct: expressed in transfected cells; crude membranes prepared in house
The experiment in a line: Radioligand binding assay ([3H]-NMS displacement). The settings on record: CHO cell membranes, [3H]-NMS at 1 nM, Cheng-Prusoff; read-out: Ki value for the M3 muscarinic receptor subtype. On the procedure:
A. Membrane Preparation from Cells Expressing hM1, hM2, hM3 and hM4 Muscarinic Receptor Subtypes
CHO cell lines stably expressing cloned human hM1, hM2, hM3 and hM4 muscarinic receptor subtypes, respectively, were grown to near confluency in medium consisting of HAM's F-12 supplemented with 10% FBS and 250 μg/mL Geneticin. The cells were grown in a 5% CO2, 37° C. incubator and lifted with 2 mM EDTA in dPBS. Cells were collected by 5 minute centrifugation at 650×g, and cell pellets were either stored frozen at −80° C. or membranes were prepared immediately. For membrane preparation, cell pellets were suspended in lysis buffer and homogenized with a Polytron PT-2100 tissue disrupter (Kinematica AG; 20 seconds×2 bursts). […] The protein concentration of the membrane suspension was determined by the method described in Lowry, O. et al., […] 193:265 (1951). […]
Radioligand binding assays were performed in 96-well microtiter plates in a total assay volume of 100 μL. […] Filter plates were rinsed three times with wash buffer (10 mM HEPES) to remove unbound radioactivity. […] The plates were then counted in a PerkinElmer Topcount liquid scintillation counter (PerkinElmer Inc., Wellesley, Mass.). Binding data were analyzed by nonlinear regression analysis with the GraphPad Prism Software package (GraphPad Software, Inc., San Diego, Calif.) using the one-site competition model. […]

T1 sequence (P20309 whole entry): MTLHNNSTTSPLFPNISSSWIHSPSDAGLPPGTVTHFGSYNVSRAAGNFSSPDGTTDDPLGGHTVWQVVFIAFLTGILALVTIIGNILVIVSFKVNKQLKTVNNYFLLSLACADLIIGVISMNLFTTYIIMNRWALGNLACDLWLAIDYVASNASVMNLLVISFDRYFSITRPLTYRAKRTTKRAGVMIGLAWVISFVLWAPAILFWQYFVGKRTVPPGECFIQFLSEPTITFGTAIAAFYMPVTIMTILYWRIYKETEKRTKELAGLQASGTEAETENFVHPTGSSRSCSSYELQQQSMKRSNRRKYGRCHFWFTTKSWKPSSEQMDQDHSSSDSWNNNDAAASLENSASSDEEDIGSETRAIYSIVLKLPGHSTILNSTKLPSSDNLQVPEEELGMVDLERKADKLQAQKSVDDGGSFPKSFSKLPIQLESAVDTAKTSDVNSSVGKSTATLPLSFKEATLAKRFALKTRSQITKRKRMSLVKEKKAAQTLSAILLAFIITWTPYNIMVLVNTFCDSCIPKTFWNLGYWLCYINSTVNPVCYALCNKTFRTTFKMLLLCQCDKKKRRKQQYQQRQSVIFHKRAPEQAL

With `CNCCc1ccc(CCN2CC[C@@H](C(C(N)=O)(c3ccccc3)c3ccccc3)C2)cc1` [Example 2, 2-((S)-1-{2-[4-(2-Methylaminoethyl)phenyl]ethyl}pyrrolidin-3-yl)-2,2-diphenyl-acetamide], the “apparent lung selectivity index (ratio of anti-sialagogue ID50 to bronchoprotective ID50)” value in assay [1] is on record as “greater than 15”.

For the compound `Cc1cnc(CNCCc2ccc(CCN3CC[C@@H](C(C(N)=O)(c4ccccc4)c4ccccc4)C3)cc2)cn1` [Example 16, 2-{(S)-1-[2-(4-{2-[(5-methylpyrazin-2-ylmethyl)amino]ethyl}phenyl)ethyl]pyrrolidin-3-yl}-2,2-diphenylacetamide], the Ki in assay [2] was found to be 110 nM.

As a reminder, the Ki is a dissociation constant, usually derived from enzyme kinetics or from competition with a known ligand.
